{
  "source": "paper PMC6108528",
  "about": "“Enhanced uptake of potassium or glycine betaine or export of cyclic-di-AMP restores osmoresistance in a high cyclic-di-AMP Lactococcus lactis mutant” (PLoS Genetics, 2018)",
  "biological_target": "T1, full length BusR (Lactococcus cremoris, UniProt A2RK30)",
  "T1 construct": "full length, His-6 tag fusion in pRSETA, codon optimised, E. coli BL21 whole cell lysate",
  "T1 sequence (A2RK30 1-206)": "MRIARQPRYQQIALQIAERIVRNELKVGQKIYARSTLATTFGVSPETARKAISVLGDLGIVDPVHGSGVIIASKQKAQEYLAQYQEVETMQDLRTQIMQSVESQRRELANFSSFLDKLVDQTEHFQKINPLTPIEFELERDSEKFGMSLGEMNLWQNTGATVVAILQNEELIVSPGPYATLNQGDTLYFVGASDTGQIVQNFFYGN",
  "assay": "DRaCALA with […]-c-di-AMP, E. coli whole cell lysate",
  "assay_type": "biochemical",
  "details": "labelled compound; room temperature, 10 min",
  "data": [
    {"compound": "Nc1ncnc2c1ncn2[C@@H]1O[C@@H]2COP(=O)(O)O[C@H]3[C@@H](O)[C@H](n4cnc5c(N)ncnc54)O[C@@H]3COP(=O)(O)O[C@H]2[C@H]1O", "note": "[c-di-AMP]", "values": [
      {"measurement": "DRaCALA with 32P-c-di-AMP, E. coli whole cell lysate", "result": "Both full length BusR and the BusR TrkA_C domain bound c-di-AMP"}
    ]}
  ]
}
